The target of test [1] is T1, C17ORF101 (Homo sapiens, UniProt Q6PK18).
T1 construct: capturing and identification of dioxygenases from nuclear protein extracts; endogenous in cells
T1 sequence (Q6PK18 1-331 isoform Q6PK18-2): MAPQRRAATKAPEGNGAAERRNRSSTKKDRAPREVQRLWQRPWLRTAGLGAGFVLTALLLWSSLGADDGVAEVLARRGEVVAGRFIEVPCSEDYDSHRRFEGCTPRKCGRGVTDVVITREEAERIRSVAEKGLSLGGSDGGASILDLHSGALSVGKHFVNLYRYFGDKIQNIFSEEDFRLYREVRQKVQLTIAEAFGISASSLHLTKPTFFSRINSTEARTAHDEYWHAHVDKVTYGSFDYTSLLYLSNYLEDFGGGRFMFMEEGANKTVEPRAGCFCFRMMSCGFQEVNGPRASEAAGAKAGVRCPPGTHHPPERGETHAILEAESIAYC
Description: Bead competition binding assay, immobilized compound B, HL-60 nuclear extract. Particulars: 200 µM free compound B, read-out: Fold change versus DMSO control. The procedure:
(§1) The preparation of HL-60 nuclear lysates, capturing of dioxygenases from cell lysate and the protein identification by Mass Spectrometry was performed as described in example 2.
(§2) Seven different dioxygenases were identified. […] Table 7: Identified dioxygenases with compound B from HL-60 nuclear extract

Test [2] deals with T2, LEPRE1 (Homo sapiens, UniProt Q32P28).
T2 construct: capturing and identification of dioxygenases from nuclear protein extracts; endogenous in cells
T2 sequence (Q32P28 23-736): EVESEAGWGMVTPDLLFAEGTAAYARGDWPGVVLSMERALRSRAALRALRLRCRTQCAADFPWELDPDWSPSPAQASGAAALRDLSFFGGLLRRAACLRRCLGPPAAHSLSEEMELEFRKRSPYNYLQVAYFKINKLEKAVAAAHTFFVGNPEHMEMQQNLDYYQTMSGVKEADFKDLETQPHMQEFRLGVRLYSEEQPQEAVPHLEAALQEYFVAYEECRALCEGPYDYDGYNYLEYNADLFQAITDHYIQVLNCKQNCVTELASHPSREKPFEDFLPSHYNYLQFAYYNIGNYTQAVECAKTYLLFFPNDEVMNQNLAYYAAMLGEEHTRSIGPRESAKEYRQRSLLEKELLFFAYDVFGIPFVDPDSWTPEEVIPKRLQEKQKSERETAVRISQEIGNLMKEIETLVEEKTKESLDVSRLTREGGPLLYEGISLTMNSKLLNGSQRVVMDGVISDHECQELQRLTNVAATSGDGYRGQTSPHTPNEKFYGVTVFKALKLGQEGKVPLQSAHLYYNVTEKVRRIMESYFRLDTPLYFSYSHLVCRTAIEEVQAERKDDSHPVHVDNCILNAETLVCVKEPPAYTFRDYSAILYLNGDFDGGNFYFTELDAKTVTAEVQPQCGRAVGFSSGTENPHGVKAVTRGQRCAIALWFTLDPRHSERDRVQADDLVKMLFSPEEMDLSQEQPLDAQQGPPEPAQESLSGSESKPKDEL
Described as above. Particulars: 200 µM free compound B, read-out: Fold change versus DMSO control. Here is the method:
as §1, §2

Test [3] deals with T3, LEPREL2 (Homo sapiens, UniProt Q8IVL6).
T3 construct: capturing and identification of dioxygenases from nuclear protein extracts; endogenous in cells
T3 sequence (Q8IVL6 21-736): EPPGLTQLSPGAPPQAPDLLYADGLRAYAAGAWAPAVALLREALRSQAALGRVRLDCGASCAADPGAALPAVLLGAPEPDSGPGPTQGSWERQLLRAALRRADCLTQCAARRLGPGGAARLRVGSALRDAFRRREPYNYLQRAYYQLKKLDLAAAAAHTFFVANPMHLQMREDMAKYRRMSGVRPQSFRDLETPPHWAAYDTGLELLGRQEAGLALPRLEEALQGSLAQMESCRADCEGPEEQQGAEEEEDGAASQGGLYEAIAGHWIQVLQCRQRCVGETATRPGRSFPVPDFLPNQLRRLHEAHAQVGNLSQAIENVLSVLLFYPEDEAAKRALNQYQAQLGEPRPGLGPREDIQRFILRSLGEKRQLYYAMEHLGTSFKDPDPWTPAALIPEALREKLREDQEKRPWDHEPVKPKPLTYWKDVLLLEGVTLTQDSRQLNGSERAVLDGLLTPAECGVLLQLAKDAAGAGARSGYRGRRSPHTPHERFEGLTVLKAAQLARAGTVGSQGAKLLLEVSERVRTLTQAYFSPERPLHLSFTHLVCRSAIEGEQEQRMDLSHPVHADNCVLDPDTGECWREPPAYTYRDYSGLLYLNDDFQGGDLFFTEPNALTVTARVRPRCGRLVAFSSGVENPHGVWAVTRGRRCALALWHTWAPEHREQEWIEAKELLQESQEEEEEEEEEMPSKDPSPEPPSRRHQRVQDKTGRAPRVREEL
The test is described as above. Particulars: 200 µM free compound B, read-out: Fold change versus DMSO control. The procedure:
as §1, §2

Another test has as its target T4, OGFOD2 (Homo sapiens, UniProt Q6N063).
T4 construct: endogenous in cells; host or cells: HL-60 nuclear extract
T4 sequence (Q6N063 1-350): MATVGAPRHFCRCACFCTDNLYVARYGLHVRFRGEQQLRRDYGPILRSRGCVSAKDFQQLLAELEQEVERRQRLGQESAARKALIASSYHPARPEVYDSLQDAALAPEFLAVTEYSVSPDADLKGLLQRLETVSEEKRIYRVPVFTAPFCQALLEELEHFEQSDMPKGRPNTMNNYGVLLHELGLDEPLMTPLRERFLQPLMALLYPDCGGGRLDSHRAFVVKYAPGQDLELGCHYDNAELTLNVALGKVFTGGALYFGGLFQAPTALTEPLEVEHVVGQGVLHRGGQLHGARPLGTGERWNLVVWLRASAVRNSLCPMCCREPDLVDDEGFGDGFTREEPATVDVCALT
The test is described as above. Particulars: 200 µM free compound B, read-out: Fold change versus DMSO control. The procedure: as §1, §2

For test [4], the target named is T5, EGLN1 (Homo sapiens, UniProt Q9GZT9).
T5 construct: endogenous in cells
T5 sequence (Q9GZT9 whole entry): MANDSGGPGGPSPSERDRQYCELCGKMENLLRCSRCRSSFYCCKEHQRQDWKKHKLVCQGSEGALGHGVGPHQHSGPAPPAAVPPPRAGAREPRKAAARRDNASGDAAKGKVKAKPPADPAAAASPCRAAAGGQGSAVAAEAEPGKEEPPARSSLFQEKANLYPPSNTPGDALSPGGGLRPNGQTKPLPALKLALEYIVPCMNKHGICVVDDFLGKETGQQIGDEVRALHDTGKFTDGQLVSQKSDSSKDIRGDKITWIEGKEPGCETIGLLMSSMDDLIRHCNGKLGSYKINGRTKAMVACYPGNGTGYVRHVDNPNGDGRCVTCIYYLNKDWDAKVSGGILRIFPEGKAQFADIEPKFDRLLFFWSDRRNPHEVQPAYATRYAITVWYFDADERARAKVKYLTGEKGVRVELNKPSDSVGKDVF
The description is as above. Particulars: 200 µM free compound B, read-out: Fold change versus DMSO control. The procedure: as §1, §2

The target in test [5] is T6, P4HA1 (Homo sapiens, UniProt P13674).
T6 construct: endogenous in cells
T6 sequence (P13674 18-534): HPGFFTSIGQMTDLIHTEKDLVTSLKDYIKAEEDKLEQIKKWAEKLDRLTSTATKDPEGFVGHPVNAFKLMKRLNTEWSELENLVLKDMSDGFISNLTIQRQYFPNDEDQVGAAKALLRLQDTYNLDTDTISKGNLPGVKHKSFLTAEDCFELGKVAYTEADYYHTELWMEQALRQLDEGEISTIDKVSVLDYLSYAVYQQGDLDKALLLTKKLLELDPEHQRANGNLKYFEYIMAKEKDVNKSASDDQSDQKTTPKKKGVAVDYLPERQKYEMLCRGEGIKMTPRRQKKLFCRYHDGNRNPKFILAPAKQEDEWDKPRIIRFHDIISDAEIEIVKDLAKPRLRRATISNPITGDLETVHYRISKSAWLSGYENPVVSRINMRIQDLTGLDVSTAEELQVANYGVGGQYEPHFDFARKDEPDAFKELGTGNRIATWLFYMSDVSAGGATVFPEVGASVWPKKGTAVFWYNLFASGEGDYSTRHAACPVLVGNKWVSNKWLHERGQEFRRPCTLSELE
T6 sequence (P07237 18-508 partner): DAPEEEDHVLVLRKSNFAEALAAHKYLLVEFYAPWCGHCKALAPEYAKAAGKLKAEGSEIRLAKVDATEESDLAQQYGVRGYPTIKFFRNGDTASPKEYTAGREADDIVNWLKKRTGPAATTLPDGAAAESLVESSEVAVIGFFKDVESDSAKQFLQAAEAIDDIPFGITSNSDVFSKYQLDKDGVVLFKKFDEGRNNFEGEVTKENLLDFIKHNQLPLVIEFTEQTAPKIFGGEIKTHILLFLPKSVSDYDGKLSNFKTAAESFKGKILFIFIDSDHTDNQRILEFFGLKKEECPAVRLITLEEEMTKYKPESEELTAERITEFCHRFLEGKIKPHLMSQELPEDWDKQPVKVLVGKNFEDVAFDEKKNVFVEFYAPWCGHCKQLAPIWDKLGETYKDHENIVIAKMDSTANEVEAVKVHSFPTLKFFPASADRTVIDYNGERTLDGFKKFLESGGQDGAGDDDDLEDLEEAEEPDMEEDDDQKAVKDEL
Described as above. As to conditions: 200 µM free compound B, read-out: Fold change versus DMSO control. Here is the method:
as §1, §2

The target in test [6] is T7, ALKBH3 (Homo sapiens, UniProt Q96Q83).
T7 construct: capturing and identification of dioxygenases from nuclear protein extracts; endogenous in cells
T7 sequence (Q96Q83 1-286): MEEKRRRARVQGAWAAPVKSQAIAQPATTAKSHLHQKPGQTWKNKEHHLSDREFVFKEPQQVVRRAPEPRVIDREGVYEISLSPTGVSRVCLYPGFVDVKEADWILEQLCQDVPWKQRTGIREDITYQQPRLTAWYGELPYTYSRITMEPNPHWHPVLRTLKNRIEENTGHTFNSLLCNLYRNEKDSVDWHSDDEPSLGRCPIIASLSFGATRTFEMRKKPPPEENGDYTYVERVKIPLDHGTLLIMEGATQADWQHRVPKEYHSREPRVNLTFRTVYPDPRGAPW
The description is as above. As to conditions: 200 µM free compound B, read-out: Fold change versus DMSO control. Here is the method: as §1, §2

Test [7] has as its target T1, C17ORF101. Description: Bead competition binding assay, immobilized compound C, HL-60 nuclear extract. Particulars: 200 µM free compound C, read-out: Fold change versus DMSO control. The procedure: as §1
(§3) Seven different dioxygenases were identified. […] Table 8: Identified dioxygenases with compound C from HL-60 nuclear extract

Another test addresses T8, PLOD1 (Homo sapiens, UniProt Q02809).
T8 construct: capturing and identification of dioxygenases from nuclear protein extracts; endogenous in cells
T8 sequence (Q02809 19-727): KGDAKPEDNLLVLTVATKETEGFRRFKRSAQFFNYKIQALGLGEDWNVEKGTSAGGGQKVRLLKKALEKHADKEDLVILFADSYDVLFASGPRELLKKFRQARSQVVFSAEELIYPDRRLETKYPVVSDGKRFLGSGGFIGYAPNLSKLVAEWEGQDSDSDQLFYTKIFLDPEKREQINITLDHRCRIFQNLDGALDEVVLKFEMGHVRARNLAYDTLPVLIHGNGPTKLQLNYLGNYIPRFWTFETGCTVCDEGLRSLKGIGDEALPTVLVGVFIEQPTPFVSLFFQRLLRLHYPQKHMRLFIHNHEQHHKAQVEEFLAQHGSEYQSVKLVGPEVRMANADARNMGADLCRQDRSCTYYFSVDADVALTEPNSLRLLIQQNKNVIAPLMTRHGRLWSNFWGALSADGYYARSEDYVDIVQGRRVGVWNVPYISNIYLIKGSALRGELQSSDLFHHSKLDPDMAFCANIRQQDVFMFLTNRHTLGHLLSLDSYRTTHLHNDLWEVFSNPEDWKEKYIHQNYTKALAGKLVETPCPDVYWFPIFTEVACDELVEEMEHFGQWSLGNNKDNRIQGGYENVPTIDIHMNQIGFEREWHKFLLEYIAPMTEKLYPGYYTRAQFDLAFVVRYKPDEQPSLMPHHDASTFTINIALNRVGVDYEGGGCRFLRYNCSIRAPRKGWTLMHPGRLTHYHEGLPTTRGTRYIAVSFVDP
The description is as above. As to conditions: 200 µM free compound C, read-out: Fold change versus DMSO control. Here is the method: as §1, §3

The target in test [8] is T2, LEPRE1. The test is described as above. Particulars: 200 µM free compound C, read-out: Fold change versus DMSO control. Here is the method:
as §1, §3

Test [9] deals with T3, LEPREL2. Described as above. Particulars: 200 µM free compound C, read-out: Fold change versus DMSO control. Here is the method: as §1, §3
Test [10] deals with T5, EGLN1. The test is described as above. As to conditions: 200 µM free compound C, read-out: Fold change versus DMSO control. The procedure:
as §1, §3

The target of test [11] is T6, P4HA1. The description is as above. Particulars: 200 µM free compound C, read-out: Fold change versus DMSO control. Here is the method: as §1, §3
Test [12] concerns the target T7, ALKBH3. The test is described as above. Particulars: 200 µM free compound C, read-out: Fold change versus DMSO control. The procedure: as §1, §3

Structures are written as SMILES. Structures can show the parent of a compound that is named as a salt.

For `O=C(O)CNC(=O)C1C(=O)OC2(CCCNC2)OC1=O` (centres unmarked) [compound B, 2-(2,4-dioxo-1,5-dioxa-8-azaspiro[5.5]undecane-3-carboxamido)acetic acid hydrochloride], the remaining binding at 200 µM at C17ORF101 [1] was found to be 52%; on LEPRE1 [2] it was 67%; on LEPREL2 [3] it was 13%; on OGFOD2 it was 18%; on EGLN1 [4], 52%; on P4HA1 [5], 24%. Besides, the remaining binding at 200 µM on ALKBH3 [6] is 56%.

With `O=C(O)CNC(=O)C1C(=O)OC(C2CCNCC2)OC1=O` (centres unmarked) [compound C, 2-(4,6-dioxo-2-(piperidin-4-yl)-1,3-dioxane-5-carboxamido)acetic acid hydrochloride], the remaining binding at 200 µM is 24% on C17ORF101 [7]; 51% at PLOD1; 48% on LEPRE1 [8]; 12% at LEPREL2 [9]; 19% on EGLN1 [10]; 10% on P4HA1 [11]. Moreover, the remaining binding at 200 µM on ALKBH3 [12] is 45%.

The values are drawn from patent publication EP2505659A1, “Methods for the identification of dioxygenase interacting molecules and for the purification of dioxygenase proteins” (CELLZOME AG, priority 2011, dated 2012).
